# Assay results published in patent US20160052898A1, “NOVEL COMPOUNDS” (BAYER PHARMA AKTIENGESELLSCHAFT, priority 2013, published 2016).
# Read-outs that look alike come from different tables or passages of the source.
# Experiments:
# [1] = tested on: constitutive active colorectal cancer cell (CRC) Wnt pathway; experiment: HCT116 Super TopFlash cellular reporter assay (constitutive active Wnt pathway); type: cell-based; conditions: HCT116 TOP reporter cells, luciferase expression, 36 hours incubation, 50 μM to 15 nM
# Procedure, shortened: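 Luciferase luminescence served as the Wnt read-out after 36 h of compound treatment at 37 °C. Compound came from a pre-dilution series (50 μM down to 15 nM, 3.16-fold steps) in CAFTY buffer. Cells were stable HCT116 TOP reporter cells, with matched FOP-vector control cells tested in parallel, seeded a day earlier.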
# [2] = tested on: HCT116 FOP control reporter cell line; experiment: HCT116 FOP control vector reporter assay (non-functional TCF elements); type: cell-based; conditions: HCT116 FOP control reporter cells, luciferase expression, 36 hours incubation, 50 μM to 15 nM, read-out: HCT116 FOPFlash IC50
# Procedure, shortened: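 Stable HCT116 line carrying the non-functional FOP luciferase construct, 10000 cells/well plated 24 hrs before. Compounds 50 μM to 15 nM (3.16-fold steps) in CAFTY buffer pH 7.4 with 2 mM Ca2+, 36 hours at 37° C; luciferase luminescence read.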
"IC50 ([1]; Homo sapiens, HCT-116, 36 h)","IC50 ([2]; Homo sapiens, HCT-116, 36 h)",IC50 [1],IC50 [2],Compound
3.92 µM,≥ 50 µM,,,"COc1cc(Cl)c(C(=O)Nc2ccc(-c3ccccc3)cc2)cc1NC(=O)CN1CCOCC1 [Example 6, N-(biphenyl-4-yl)-2-chloro-4-methoxy-5-[(morpholin-4-ylacetyl)amino]benzamide]"
0.162 µM,≥ 50 µM,,,"CS(=O)(=O)c1ccc(C(=O)Nc2ccc(-c3ccccc3)cc2)cc1NC(=O)CN1CCOCC1 [Example 111, N-(biphenyl-4-yl)-4-(methylsulfonyl)-3-[(morpholin-4-ylacetyl)amino]benzamide]"
0.262 µM,≥ 50 µM,,,"COCCCOc1ccc(C(=O)Nc2ccc(-c3ccccc3)cc2)cc1NC(=O)CN1CCOCC1 [Example 91, N-(biphenyl-4-yl)-4-(3-methoxypropoxy)-3-[(morpholin-4-ylacetyl)amino]benzamide]"
0.834 µM,≥ 50 µM,,,"COc1ccc(NC(=O)c2ccc(-c3ccccc3)cc2)cc1NC(=O)[C@@H](C)N1CCOCC1 [Example 55, N-(4-methoxy-3-{[(2R)-2-(morpholin-4-yl)propanoyl]amino}phenyl)biphenyl-4-carboxamide]"
0.265 µM,≥ 50 µM,,,"C[C@H](C(=O)Nc1cc(NC(=O)c2ccc(-c3ccccc3)cc2)ccc1OC(F)(F)F)N1CCOCC1 [Example 63, N-[3-{[(2R)-2-(morpholin-4-yl)propanoyl]amino}-4-(trifluoromethoxy)phenyl]biphenyl-4-carboxamide]"
0.0605 µM,43.5 µM,,,"COCc1ccc(C(=O)Nc2ccc(-c3ccccc3)cc2)cc1NC(=O)C(C)N1CCOCC1 (centres unmarked) [Example 157, N-(biphenyl-4-yl)-4-(methoxymethyl)-3-{[2-(morpholin-4-yl)propanoyl)amino} benzamide]"
,,0.362 µM,30 µM,"COc1ccc(C(=O)Nc2ccc(-c3ccccc3)cc2)cc1NC(=O)C1(N2CCN(C)CC2)CC1 [Example 133, N-(biphenyl-4-yl)-4-methoxy-3-({[1-(4-methylpiperazin-1-yl)cyclopropyl]carbonyl}amino)benzamide]"
0.174 µM,≥ 50 µM,,,"CCC(C(=O)Nc1cc(C(=O)Nc2ccc(-c3ccccc3)cc2)ccc1OC)N1CCOCC1 (single isomer, unassigned) [Example 131, N-(biphenyl-4-yl)-4-methoxy-3-{[(2R*)-2-(morpholin-4-yl)butanoyl)amino} benzamide]"
0.533 µM,≥ 50 µM,,,"O=C(CN1C[C@@H]2C[C@H]1CO2)Nc1cc(C(=O)Nc2ccc(-c3ccccc3)cc2)ccc1C(F)(F)F [Example 11, N-(biphenyl-4-yl)-3-{[(1S,4S)-2-oxa-5-azabicyclo[2.2.1]hept-5-ylacetyl]amino}-4-(trifluoromethyl)benzamide]"
3.6 µM,≥ 50 µM,,,"COc1ccc(C(=O)Nc2ccc(-c3ccccc3)cc2)cc1N(C)C(=O)CN1CC2CCC(C1)O2 [Example 210, N-(biphenyl-4-yl)-4-methoxy-3-[methyl(8-oxa-3-azabicyclo[3.2.1]oct-3-ylacetyl)amino]benzamide]"
0.302 µM,7.4 µM,,,"O=C(CN1CCOCC1)Nc1cc(C(=O)Nc2ccc(-c3ccccc3)cc2)ccc1C(=O)NCCCN1CCCC1 [Example 103, N^4-(biphenyl-4-yl)-2-[(morpholin-4-ylacetyl)amino]-N-[3-(pyrrolidin-1-yl)propyl]terephthalamide]"
0.338 µM,15.5 µM,,,"NC(=O)COc1ccc(C(=O)Nc2ccc(-c3ccccc3)cc2)cc1NC(=O)CN1CCOCC1 [Example 122, 4-(2-amino-2-oxoethoxy)-N-(biphenyl-4-yl)-3-[(morpholin-4-ylacetyl)amino]benzamide]"
2 µM,≥ 50 µM,,,"COc1ccc(NC(=O)c2ccc(-c3ccccc3)cc2)cc1NC(=O)CN1CCCC(OC)C1 (centres unmarked) [Example 38, N-(4-methoxy-3-{[(3-methoxypiperidin-1-yl)acetyl]amino}phenyl)biphenyl-4-carboxamide]"
0.098 µM,≥ 50 µM,,,"CC(C(=O)Nc1cc(NC(=O)c2ccc(-c3ccccc3)cc2)ccc1C(F)(F)F)N1CCOCC1 (centres unmarked) [Example 161, N-[3-{[2-(morpholin-4-yl)propanoyl]amino}-4-(trifluoromethyl)phenyl] biphenyl-4-carboxamide]"
1.75 µM,≥ 50 µM,,,"COCCc1noc(-c2ccc(C(=O)Nc3ccc(-c4ccccc4)cc3)cc2NC(=O)CN2CCOCC2)n1 [Example 200, N-(biphenyl-4-yl)-4-[3-(2-methoxyethyl)-1,2,4-oxadiazol-5-yl]-3-[(morpholin-4-ylacetyl)amino]benzamide]"
0.178 µM,7.4 µM,,,"COCc1ccc(C(=O)Nc2ccc(-c3ccccc3)cc2)cc1NC(=O)C(C)N1CC2CCC(C1)O2 (centres unmarked) [Example 170, N-(biphenyl-4-yl)-4-(methoxymethyl)-3-{(2-(8-oxa-3-azabicyclo[3.2.1]oct-3-yl)propanoyl)amino} benzamide]"

"IC50 ([1]; Homo sapiens, HCT-116, 36 h)","IC50 ([2]; Homo sapiens, HCT-116, 36 h)",IC50 [1],IC50 [2],Compound
0.864 µM,≥ 50 µM,,,"Cc1noc(-c2ccc(C(=O)Nc3ccc(-c4ccccc4)cc3)cc2NC(=O)CN2CCOCC2)n1 [Example 194, N-(biphenyl-4-yl)-4-(3-methyl-1,2,4-oxadiazol-5-yl)-3-[(morpholin-4-ylacetyl)amino]benzamide]"
0.159 µM,≥ 50 µM,,,"O=C(Nc1ccc(-c2ccccc2)cc1)c1ccc(OC2CC2)c(NC(=O)C2(N3CCOCC3)CC2)c1 [Example 113, N-(biphenyl-4-yl)-4-(cyclopropyloxy)-3-({[1-(morpholin-4-yl)cyclopropyl]carbonyl}amino)benzamide]"
0.552 µM,7.8 µM,,,"CN(C)CCNC(=O)c1ccc(C(=O)Nc2ccc(-c3ccccc3)cc2)cc1NC(=O)CN1CCOCC1 [Example 105, formic acid —N^4-(biphenyl-4-yl)-N^1-[2-(dimethylamino)ethyl]-2-[(morpholin-4-ylacetyl)amino]terephthalamide (1:1)]"
3 µM,≥ 50 µM,,,"COc1ccc(NC(=O)c2ccc(-c3ccc4c(c3)CCO4)cc2)cc1NC(=O)CN1CCOCC1 [Example 208, 4-(2,3-dihydro-1-benzofuran-5-yl)-N-{4-methoxy-3-[(morpholin-4-ylacetyl)amino]phenyl} benzamide]"
0.285 µM,47.5 µM,,,"CC(C(=O)Nc1cc(NC(=O)c2ccc(-c3ccccc3)cc2)ccc1C(F)(F)F)N1CC2CCC(C1)O2 (centres unmarked) [Example 178, N-[3-{[2-(8-oxa-3-azabicyclo[3.2.1]oct-3-yl)propanoyl]amino}-4-(trifluoromethyl)phenyl) biphenyl-4-carboxamide]"
0.136 µM,≥ 50 µM,,,"O=C(CN1CCOCC1)Nc1cc(C(=O)Nc2ccc(-c3ccccc3)cc2)ccc1-c1cccs1 [Example 19, N-(biphenyl-4-yl)-3-[(morpholin-4-ylacetyl)amino]-4-(2-thienyl)benzamide]"
0.81 µM,9.3 µM,,,"O=C(CN1CCOCC1)Nc1cc(NC(=O)c2ccc(-c3ccccc3)cc2)ccc1Cl [Example 69, N-{4-chloro-3-[(morpholin-4-ylacetyl)amino]phenyl}biphenyl-4-carboxamide]"
0.582 µM,≥ 50 µM,,,"C[C@H](C(=O)Nc1cc(NC(=O)c2ccc(-c3ccccc3)cc2)ccc1OC(F)(F)F)N1CC2CCC(C1)O2 [Example 60, N-[3-{[(2R)-2-(8-oxa-3-azabicyclo[3.2.1]oct-3-yl)propanoyl]amino}-4-(trifluoromethoxy)phenyl]biphenyl-4-carboxamide]"
2.02 µM,≥ 50 µM,,,"COc1ccc(NC(=O)c2ccc(-c3ccccc3)c(F)c2)cc1NC(=O)CN1CCOCC1 [Example 203, 2-fluoro-N-{4-methoxy-3-[(morpholin-4-ylacetyl)amino]phenyl} biphenyl-4-carboxamide]"
0.715 µM,12 µM,,,"O=C(CN1CCOCC1)Nc1cc(C(=O)Nc2ccc(-c3ccccc3)cc2)ccc1C(=O)NCCN1CCCC1 [Example 191, N4-(biphenyl-4-yl)-2-[(morpholin-4-ylacetyl)amino]-N1-[2-(pyrrolidin-1-yl)ethyl]terephthalamide]"
,,0.31 µM,≥ 50 µM,"CCC(C(=O)Nc1cc(C(=O)Nc2ccc(-c3ccccc3)cc2)ccc1OC)N1CCOCC1 (single isomer, unassigned) [Example 132, N-(biphenyl-4-yl)-4-methoxy-3-{[(2S*)-2-(morpholin-4-yl)butanoyl]amino} benzamide]"
0.334 µM,16.5 µM,,,"CN(C)C(=O)c1ccc(C(=O)Nc2ccc(-c3ccccc3)cc2)cc1NC(=O)CN1CCOCC1 [Example 21, N^4-(biphenyl-4-yl)-N^1,N^1-dimethyl-2-[(morpholin-4-ylacetyl)amino]terephthalamide]"
0.975 µM,39 µM,,,"COc1ccc(NC(=O)c2ccc(-c3ccc(O)cc3)cc2)cc1NC(=O)CN1CCOCC1 [Example 195, 4′-hydroxy-N-{4-methoxy-3-[(morpholin-4-ylacetyl)amino)phenyl} biphenyl-4-carboxamide]"
1.7 µM,25 µM,,,"O=C(CNCCO)Nc1cc(NC(=O)c2ccc(-c3ccccc3)cc2)ccc1OC(F)(F)F [Example 140, N-[3-{[N-(2-hydroxyethyl)glycyl]amino}-4-(trifluoromethoxy)phenyl] biphenyl-4-carboxamide]"
0.4 µM,≥ 50 µM,,,"COc1ccc(C(=O)Nc2ccc(-c3cc(F)cc(F)c3)c(F)c2)cc1NC(=O)CN1CCOCC1 [Example 123, 4-methoxy-3-[(morpholin-4-ylacetyl)amino]-N-(2,3′,5′-trifluorobiphenyl-4-yl)benzamide]"
